Test results taken from patent publication US7026344B2, “Treating sickle cell disease” (priority 2000, dated 2006).

Test system: human γ (Huγ) mRNA in K562 cells
Assay: γ globin mRNA induction in K562 cells by RNase protection assay
Assay type: cell-based
Conditions: K562
Experimental: Cell Culture. K562 cells were grown in suspension cultures in RPMI-1640 containing 10% fetal bovine serum, penicillin (100 U/ml) and streptomycin (0.1 mg/ml in a humidified incubator at 37° C. in a 5%CO2/95% air atmosphere. The following experimental conditions were analyzed in triplicate with 2×10^6 cells per well: an untreated control, ZL dissolved in 0.1% dimethylsulfoximide (DMSO) at final concentrations of […], HU at […] and two positive controls hemin (50 mM) and sodium butyrate (NB) 2 mM. The K562 cells were induced for 72 hours then RNA isolated for further analysis. Cell viability was completed by 2% trypan blue exclusion at timnes 0 and 72 hours.
RNA Isolation. RNA was isolated using RNA Stat-60 (TEL-TEST “B”, Inc., Friendswood, Tex.) according to the manufacturer's instructions. In brief, cell pellets will be suspended in RNA Stat-60 (1 ml) and chloroform (200 μl), and the RNA extracted and precipitated with isopropanol.
RNase Protection Analysis. MRNA levels will be quantitated by RNase protection assay (RPA) with probes designed to yield protected fragments for human γ (Huγ)and the internal control glyceraldehydes-3-phosphate dehydrogenase (GAPD). Huγ mRNA levels were normalized to that of GAPD and compared to the untreated K562 cells. (Zar: Statistical Analysis, Englewood)
Several pharmacological hemoglobin F inducers such as HU, 5-azacytidine, erythropoietin, didox, and butyrate alter γ gene expression in culture. The induction of γ gene activity in culture is a good indicator of potential clinical usefulness. Therefore the capability of ZL to induce γ gene activity at the mRNA level was tested. K562 cells were cultured in ZL from 0 to 100 μM or HU (50μ to 100 μM) for 48 hours. Total cellular RNA was analyzed by RPA for γ mRNA levels. An increase in γ mRNA for ZL at 20 μM with a maximal response at 75 μM (FIG. 4A) was observed. The level of γ gene mRNA synthesis was quantitated relative to the internal control, CAPD. […] K562 cell viability was decreased 10% when measured using trypan blue exclusion at 75 μM and 100 μM concentrations for both ZL and HU. The level of γ gene induction was 3.9 fold and 10-fold for the positive controls NB and hemin, respectively.

Compound	level of γ gene induction (positive control NB 2 mM) [fold]	level of γ gene induction (positive control hemin (50 µM)) [fold]
CCCC(=O)[O-].[Na+] [NB, sodium butyrate]	3.9	–
hemin	–	10
